Laboratory results: patent publication US11945822B2, “Pyrazolo-triazine and/or pyrazolo-pxrimidine derivatives as selective inhibitor of cyclin dependent kinase” (QURIENT CO., LTD., priority 2018, dated 2024)

Legend:
[1] = biological target: T1, CDK1/Cyclin B (Homo sapiens, UniProt P06493); test: Enzymatic assay for CDK1 (FRET based LANCE Ultra kinase assay); assay type: biochemical; settings: read-out: CDK1 enzymatic activity (IC50 range)
T1 construct: purchased Invitrogen PR4768C
Outline: (§1)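 Each CDK complex ([…]) phosphorylated 68 nM ULight-MBP peptide with ATP at Km for 60 min at 23° C., against 8 compound doses (4-fold dilutions). EDTA/Eu-anti-phospho-MBP detection, 60 min, then TR-FRET emission at 615 and 665 nm.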

[2] = test system: MV4-11; test: Cellular MV4-11 viability assay (CellTiter-Glo, 72 hours); assay type: cell-based; settings: Homo sapiens
Description: (§2) All cell lines were routinely tested for mycoplasma.
(§3) The effect of the CDK7 inhibitor to inhibit the growth of target cancer cells was evaluated through the 72 hours time period of viability assay. Briefly, the candidate cell line ware plated in 96 well plate at the following density of cells respectively. […] DMSO solvent without compound served as a control and final DMSO concentration less than 0.1%. After 72 hours of incubation at 37° C., 5% CO2 incubator, cells were analyzed for the viability using the CellTiter-Glo Luminescent Cell Viability Assay (Promega, Cat #G7570). All viability assays were performed in duplicate and Luminescence was read using an Envision (Perkin Elmer, USA). Data was analyzed using XLfit software.

[3] = biological target: T2, CDK2/Cyclin A (Homo sapiens, UniProt P24941); test: Enzymatic assay for CDK2 (FRET based LANCE Ultra kinase assay); assay type: biochemical; settings: read-out: CDK2 enzymatic activity (IC50 range)
T2 construct: purchased Invitrogen PV6290
Outline: as §1

[4] = biological target: T3, CDK7/Cyclin H/MNAT1 (Homo sapiens, UniProt P50613); test: Enzymatic assay for CDK7 (FRET based LANCE Ultra kinase assay); assay type: biochemical; settings: for IC50: read-out: CDK7 enzymatic activity (IC50 range)
T3 construct: purchased Invitrogen PR6749B
T3 sequence (P50613 whole entry): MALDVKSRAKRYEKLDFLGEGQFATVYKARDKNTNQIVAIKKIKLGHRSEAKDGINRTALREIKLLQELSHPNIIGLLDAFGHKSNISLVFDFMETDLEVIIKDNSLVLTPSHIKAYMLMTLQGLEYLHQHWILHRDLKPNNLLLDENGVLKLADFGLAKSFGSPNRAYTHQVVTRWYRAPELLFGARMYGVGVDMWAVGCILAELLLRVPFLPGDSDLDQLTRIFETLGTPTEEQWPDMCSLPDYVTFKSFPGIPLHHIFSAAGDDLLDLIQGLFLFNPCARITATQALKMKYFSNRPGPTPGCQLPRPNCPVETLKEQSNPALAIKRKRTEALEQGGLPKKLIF
T3 sequence (P51946 whole entry partner): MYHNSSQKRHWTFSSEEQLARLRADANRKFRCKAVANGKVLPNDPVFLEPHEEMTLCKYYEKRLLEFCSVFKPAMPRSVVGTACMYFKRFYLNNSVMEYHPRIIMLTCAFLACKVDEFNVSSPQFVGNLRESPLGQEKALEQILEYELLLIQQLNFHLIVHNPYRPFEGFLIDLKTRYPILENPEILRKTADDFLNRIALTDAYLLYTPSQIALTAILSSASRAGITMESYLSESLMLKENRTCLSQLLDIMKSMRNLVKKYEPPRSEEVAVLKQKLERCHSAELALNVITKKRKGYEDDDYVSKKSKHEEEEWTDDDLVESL
T3 sequence (P51948 whole entry partner): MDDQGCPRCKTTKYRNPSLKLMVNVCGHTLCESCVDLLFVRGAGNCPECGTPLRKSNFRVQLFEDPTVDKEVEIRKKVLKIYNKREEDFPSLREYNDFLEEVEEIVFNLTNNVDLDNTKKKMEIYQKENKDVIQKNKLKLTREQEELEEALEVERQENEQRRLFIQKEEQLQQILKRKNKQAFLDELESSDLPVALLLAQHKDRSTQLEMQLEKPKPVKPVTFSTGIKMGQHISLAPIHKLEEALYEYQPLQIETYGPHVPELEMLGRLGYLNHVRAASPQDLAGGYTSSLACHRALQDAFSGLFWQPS
Outline: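 Inhibition was measured at Km ATP by time-resolved FRET between a Eu anti-phospho antibody and a phosphorylated ULight peptide. The enzyme was the purified CDK7/cyclin complex, and data were curve-fitted.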

[5] = test system: HCT116; test: Cellular HCT116 viability assay (CellTiter-Glo, 72 hours); assay type: cell-based; settings: Homo sapiens, HCT-116
Description: as §2, §3

[6] = test system: H460; test: Cellular H460 viability assay (CellTiter-Glo, 72 hours); assay type: cell-based; settings: Homo sapiens, NCI-H460
Outline: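 CellTiter-Glo luminescence read in duplicate after 72 h compound exposure (37 °C, 5% CO2); DMSO-only control, final DMSO under 0.1%.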

[7] = biological target: T4, CDK5/p25 (Homo sapiens, UniProt Q00535); test: Enzymatic assay for CDK5 (FRET based LANCE Ultra kinase assay); assay type: biochemical; settings: read-out: CDK5 enzymatic activity (IC50 range)
T4 construct: purchased Invitrogen PR8543B
T4 sequence (Q00535 whole entry): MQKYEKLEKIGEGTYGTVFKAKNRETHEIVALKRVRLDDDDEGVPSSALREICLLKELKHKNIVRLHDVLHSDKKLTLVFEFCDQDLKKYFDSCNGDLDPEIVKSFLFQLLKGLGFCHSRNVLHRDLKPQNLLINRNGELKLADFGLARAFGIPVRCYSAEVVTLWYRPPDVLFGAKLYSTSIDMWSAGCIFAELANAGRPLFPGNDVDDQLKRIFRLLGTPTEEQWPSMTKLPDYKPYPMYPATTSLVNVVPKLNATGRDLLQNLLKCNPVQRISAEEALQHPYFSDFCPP
T4 sequence (Q15078 99-307 partner limits assumed): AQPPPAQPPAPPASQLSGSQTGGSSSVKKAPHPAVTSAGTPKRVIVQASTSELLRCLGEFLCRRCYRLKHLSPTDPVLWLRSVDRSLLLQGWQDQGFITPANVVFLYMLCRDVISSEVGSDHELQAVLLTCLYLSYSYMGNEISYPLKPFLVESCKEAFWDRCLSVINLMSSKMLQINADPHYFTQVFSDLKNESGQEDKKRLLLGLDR
Outline: as §1

T1 sequence (P06493 whole entry): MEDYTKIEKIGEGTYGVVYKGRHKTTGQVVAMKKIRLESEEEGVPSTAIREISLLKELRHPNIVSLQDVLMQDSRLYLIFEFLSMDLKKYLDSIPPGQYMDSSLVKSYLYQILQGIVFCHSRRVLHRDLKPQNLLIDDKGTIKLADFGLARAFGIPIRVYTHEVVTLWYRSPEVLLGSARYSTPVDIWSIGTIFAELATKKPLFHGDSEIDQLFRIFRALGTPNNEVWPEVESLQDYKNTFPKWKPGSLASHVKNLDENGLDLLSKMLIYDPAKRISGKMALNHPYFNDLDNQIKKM
T1 sequence (P14635 whole entry partner): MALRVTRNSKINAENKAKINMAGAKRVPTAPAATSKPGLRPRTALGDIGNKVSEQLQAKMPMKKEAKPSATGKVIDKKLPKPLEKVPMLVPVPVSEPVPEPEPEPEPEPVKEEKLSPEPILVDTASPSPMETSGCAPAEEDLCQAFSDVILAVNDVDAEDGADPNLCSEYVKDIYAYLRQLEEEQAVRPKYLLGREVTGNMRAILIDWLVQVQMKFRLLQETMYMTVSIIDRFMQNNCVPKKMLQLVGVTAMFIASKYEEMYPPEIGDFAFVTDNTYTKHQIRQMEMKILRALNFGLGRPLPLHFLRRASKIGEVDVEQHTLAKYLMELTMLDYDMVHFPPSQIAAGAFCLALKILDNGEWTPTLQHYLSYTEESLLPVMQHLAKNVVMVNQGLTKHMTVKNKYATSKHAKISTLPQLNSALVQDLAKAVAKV

| Compound | IC50 [1] [nM] | IC50 [2] [nM] | IC50 [3] [nM] | CDK1/CDK7: Selectivity of CDK7 inhibition over CDK1 inhibition [4] | CDK2/CDK7: Selectivity of CDK7 inhibition over CDK2 inhibition [4] | CDK5/CDK7: Selectivity of CDK7 inhibition over CDK5 inhibition [4] | IC50 [4] [nM] | IC50 [5] [nM] | IC50 [6] [nM] | IC50 [7] [nM] |
| --- | --- | --- | --- | --- | --- | --- | --- | --- | --- | --- |
| CNC(=O)c1cccc(-c2cnn(-c3ccccc3CNc3nc(N4CCC(N)CC4)nc4c(C(C)C)cnn34)c2)c1 [Compound 151] | 100 to 1000 | < 1000 | 100 to 1000 | A (A=greater than 200 fold) | B (B=less than 200 fold, but greater than 20 fold) | B (B=less than 200 fold, but greater than 20 fold) | < 100 | < 1000 | < 1000 | 100 to 1000 |
| CC(C)c1cnn2c(NCc3c(Cl)cccc3-n3ccc(C(C)(C)O)n3)nc(N3CCC(CN)CC3)nc12 [Compound 217] | > 1000 | < 1000 | > 1000 | A (A=greater than 200 fold) | A (A=greater than 200 fold) | A (A=greater than 200 fold) | < 100 | < 1000 | < 1000 | > 1000 |
| CC(C)c1cnn2c(NCc3ccccc3-c3ccc4ccccc4n3)cc(NCC3(O)CCNCC3)nc12 [Compound 208] | 100 to 1000 | < 1000 | < 100 | B (B=less than 200 fold, but greater than 20 fold) | C (C=less than 20 fold) | B (B=less than 200 fold, but greater than 20 fold) | < 100 | < 1000 | < 1000 | 100 to 1000 |
| CC(C)c1cnn2c(NCc3ccccc3-n3cc(N4CCOCC4)cn3)nc(N3CCC(N)CC3)nc12 [Compound 156] | > 1000 | < 1000 | 100 to 1000 | A (A=greater than 200 fold) | B (B=less than 200 fold, but greater than 20 fold) | B (B=less than 200 fold, but greater than 20 fold) | < 100 | < 1000 | < 1000 | 100 to 1000 |
| CC(C)c1cnn2c(NCc3ccccc3-n3cc(N4CCN(C)CC4)cn3)nc(N3CCC(N)CC3)nc12 [Compound 179] | 100 to 1000 | < 1000 | 100 to 1000 | B (B=less than 200 fold, but greater than 20 fold) | B (B=less than 200 fold, but greater than 20 fold) | B (B=less than 200 fold, but greater than 20 fold) | < 100 | < 1000 | < 1000 | 100 to 1000 |
| CC(C)c1cnn2c(NCc3ccccc3-n3ccc(C(C)(C)O)n3)nc(NCC3(O)CCNCC3)nc12 [Compound 229] | > 1000 | 1000 to 10000 | 100 to 1000 | B (B=less than 200 fold, but greater than 20 fold) | C (C=less than 20 fold) | C (C=less than 20 fold) | < 100 | 1000 to 10000 | 1000 to 10000 | 100 to 1000 |
| CC(C)c1cnn2c(NCc3c(Cl)cccc3N3CCOCC3)nc(N3CCC(N)CC3)nc12 [Compound 206] | > 1000 | < 1000 | > 1000 | A (A=greater than 200 fold) | A (A=greater than 200 fold) | B (B=less than 200 fold, but greater than 20 fold) | < 100 | < 1000 | < 1000 | 100 to 1000 |
| Cc1cccc(-n2ccc(C(C)(C)O)n2)c1CNc1nc(NCC2CCNCC2)nc2c(C(C)C)cnn12 [Compound 232] | > 1000 | 1000 to 10000 | > 1000 | A (A=greater than 200 fold) | A (A=greater than 200 fold) | A (A=greater than 200 fold) | < 100 | 1000 to 10000 | 1000 to 10000 | > 1000 |
| Cc1cccc(-c2cc(CO)nn2C)c1CNc1nc(N2CCC(N)CC2)nc2c(C(C)C)cnn12 [Compound 214] | > 1000 | < 1000 | > 1000 | A (A=greater than 200 fold) | A (A=greater than 200 fold) | A (A=greater than 200 fold) | < 100 | < 1000 | < 1000 | > 1000 |
| CC(C)c1cnn2c(NCc3ccccc3-c3ccc4ccccc4n3)nc(NCC3CCNCC3)nc12 [Compound 209] | > 1000 | < 1000 | > 1000 | A (A=greater than 200 fold) | A (A=greater than 200 fold) | A (A=greater than 200 fold) | < 100 | < 1000 | < 1000 | > 1000 |
| CC(C)c1cnn2c(NCc3ccccc3-c3ccc4ccccc4n3)nc(NCC3(O)CCNCC3)nc12 [Compound 212] | > 1000 | 1000 to 10000 | > 1000 | A (A=greater than 200 fold) | B (B=less than 200 fold, but greater than 20 fold) | B (B=less than 200 fold, but greater than 20 fold) | < 100 | 1000 to 10000 | 1000 to 10000 | > 1000 |
| CC(C)c1cnn2c(NCc3ccccc3-n3cc(C(=O)NC4CCOCC4)cn3)nc(N3CCC(N)CC3)nc12 [Compound 155] | 100 to 1000 | < 1000 | 100 to 1000 | A (A=greater than 200 fold) | B (B=less than 200 fold, but greater than 20 fold) | B (B=less than 200 fold, but greater than 20 fold) | < 100 | < 1000 | < 1000 | < 100 |
| CC(C)c1cnn2c(NCc3ccccc3-c3ccc4ccccc4n3)nc(OCC3CCNCC3O)nc12 (stereo not shown) [Compound 218] | > 1000 | < 1000 | > 1000 | A (A=greater than 200 fold) | A (A=greater than 200 fold) | A (A=greater than 200 fold) | < 100 | < 1000 | < 1000 | > 1000 |
| CC(C)c1cnn2c(NCc3ccccc3-c3ccc4ccccc4n3)nc(NCC3CCNCC3O)nc12 (stereo not shown) [Compound 222] | > 1000 | < 1000 | 100 to 1000 | A (A=greater than 200 fold) | A (A=greater than 200 fold) | A (A=greater than 200 fold) | < 100 | < 1000 | < 1000 | 100 to 1000 |
| CC(C)c1cnn2c(NCc3c(Cl)cccc3-n3ccc(C(=O)N4CCOCC4)n3)nc(N3CCC(N)CC3)nc12 [Compound 200] | > 1000 | < 1000 | > 1000 | A (A=greater than 200 fold) | A (A=greater than 200 fold) | A (A=greater than 200 fold) | < 100 | < 1000 | < 1000 | > 1000 |
| CC(C)c1cnn2c(NCc3ccccc3-n3ccc(C(C)(C)O)n3)nc(NCC3CCNCC3)nc12 [Compound 224] | > 1000 | < 1000 | > 1000 | A (A=greater than 200 fold) | A (A=greater than 200 fold) | A (A=greater than 200 fold) | < 100 | < 1000 | < 1000 | > 1000 |
